Columns and labels:
[1] = system: caudal epididymal wild-type sperm; assay: Ca2+ imaging of Fluo-4 loaded sperm, wild-type; assay type: cell-based, mouse
Protocol: (§1) For Ca^2+ imaging, sperm were prepared in HS medium (Wennemuth, et al. (2000), J Biol Chem 275, 21210-7) and loaded with 10 μM Fluo-4-AM and 0.05% Pluronic F-127 for 30 min. at room temperature. Washed cells were seeded onto Cell-Tak coated cover slips. Attached motile sperm were imaged in nonconfocal mode to avoid motion-induced fluorescence change artifacts. The 488 nm wavelength beam of an Argon-Krypton laser was used for excitation and fluorescence emission was collected at 512 nm (Zeiss LSM 410).
(§2) Wild-type and mutant sperm were loaded with Fluo-4 and their fluorescence measured by single photon confocal microscopy.

CatSper1^−/− sperm = assay: Ca2+ imaging of Fluo-4 loaded sperm, CatSper1-/- mutant; assay type: cell-based, mouse
Protocol: as §1, §2

SMILES: Nc1nc2c(nc(Br)n2[C@@H]2O[C@@H]3COP(=O)(O)O[C@H]3[C@H]2O)c(=O)[nH]1 [8-Br-cGMP]
- sperm head and tail [Ca^2+]i change (Fluo-4 fluorescence) ([1]; wild-type sperm, 1 mM membrane-permeant cyclic nucleotide in bath): initiated Ca^2+ influx in sperm
- cyclic nucleotide-induced Ca^2+ influx in mutant sperm (CatSper1^−/− sperm): neither cAMP nor cGMP elicited significant Ca^2+ influx

SMILES: CC(=O)[C@H]1CC[C@H]2[C@@H]3CCC4=CC(=O)CC[C@]4(C)[C@H]3CC[C@]12C [progesterone]
- Ca^2+ influx (control for dye loading), wild-type sperm ([1]; wild-type sperm): initiated a large Ca^2+ influx
- Ca^2+ influx (control for dye loading), mutant sperm (CatSper1^−/− sperm): initiated a large Ca^2+ influx

SMILES: O=C([O-])O.[Na+] [sodium bicarbonate]
- [Ca^2+]i increase on addition to the bath ([1]; 20 mM in bath): induced an increase in [Ca^2+]i that was smaller than that observed with cyclic AMP or GMP

SMILES: CN[C@@H]1C[C@H]2O[C@@](C)([C@@H]1OC)n1c3ccccc3c3c4c(c5c6ccccc6n2c5c31)C(=O)NC4 [staurosporine]
- block of cyclic AMP and cyclic GMP induced [Ca^2+]i increase ([1]; sperm incubated with 1 μM, 10 minutes): not blocked

— US8852860B2, “Sperm-specific cation channel, CatSper1 and uses therefor” (Children's Medical Center Corporation, priority 2001, dated 2014)
